These molecules were tested against Induced myeloid leukemia cell differentiation protein Mcl-1 (Homo sapiens, UniProt Q07820) (assay: Fluorescence Polarization Competition Assay).
Induced myeloid leukemia cell differentiation protein Mcl-1, sequence (Q07820 whole entry): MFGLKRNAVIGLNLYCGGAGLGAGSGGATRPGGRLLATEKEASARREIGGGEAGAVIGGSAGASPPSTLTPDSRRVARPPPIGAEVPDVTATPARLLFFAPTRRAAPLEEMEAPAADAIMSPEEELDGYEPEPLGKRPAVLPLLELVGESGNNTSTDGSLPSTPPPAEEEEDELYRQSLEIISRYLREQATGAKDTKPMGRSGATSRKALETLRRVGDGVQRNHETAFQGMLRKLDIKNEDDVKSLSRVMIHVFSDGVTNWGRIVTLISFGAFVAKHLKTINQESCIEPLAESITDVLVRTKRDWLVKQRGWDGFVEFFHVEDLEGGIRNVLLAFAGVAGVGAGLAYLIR
Description: The assay was carried out in black half-area 96-well NBS plate (Corning), containing 15 nM of MCL-1 (BPS Bioscience), 5 nM of FITC-Bim and 3-fold serial diluted test compounds in a total volume of 50 μL of assay buffer (20 mM HEPES, 50 mM NaCl, 0.002% Tween 20, 1 mM TCEP, and 1% DMSO). The reaction plate was incubated for 1 hour at room temperature. The change of anisotropy is measured with an Envision multimode plate reader (PerkinElmer) at emission wavelength 535 nm. Fluorescence polarization was calculated in mP unit and the percentage inhibition was calculated by % inhibition=100×(mPDMSO−mP)/(mPDMSO−mPPC), in which mPDMSO is the DMSO control, and mPpc is the positive control. IC50 values were determined from a 10-point dose response curve by fitting the percent inhibition against compound concentration using the GraphPad Prism software
Work on CN1C/C=C/[C@H](OC(=O)NC2CC2)[C@@H]2CC[C@H]2CN2C[C@@]3(CCCc4cc(Cl)ccc43)COc3ccc(cc32)S(=O)(=O)NC(=O)C1(C)C yielded a Ki of under 0.3 µM.
In the case of CN(C)CCN(C)C(=O)O[C@H]1/C=C/COC(C)(C)C(=O)NS(=O)(=O)c2ccc3c(c2)N(C[C@@H]2CC[C@H]21)C[C@@]1(CCOc2cc(Cl)ccc21)CO3, the Ki is reported as under 0.3 µM.
Work on CCO[C@@H]1CCN(C(=O)O[C@H]2/C=C/COC(C)(C)C(=O)NS(=O)(=O)c3ccc4c(c3)N(C[C@@H]3CC[C@H]32)C[C@@]2(CCOc3cc(Cl)ccc32)CO4)C1 yielded a Ki of under 0.3 µM.
Work on COC1CN(C(=O)O[C@H]2/C=C/COC(C)(C)C(=O)NS(=O)(=O)c3ccc4c(c3)N(C[C@@H]3CC[C@H]32)C[C@@]2(CCOc3cc(Cl)ccc32)CO4)C1 yielded a Ki of under 0.3 µM.
For CN(C)[C@@H]1CCN(C(=O)O[C@H]2/C=C/COC(C)(C)C(=O)NS(=O)(=O)c3ccc4c(c3)N(C[C@@H]3CC[C@H]32)C[C@@]2(CCOc3cc(Cl)ccc32)CO4)C1, the Ki was under 0.3 µM.
With CN(C)C1CN(C(=O)O[C@H]2/C=C/COC(C)(C)C(=O)NS(=O)(=O)c3ccc4c(c3)N(C[C@@H]3CC[C@H]32)C[C@@]2(CCOc3cc(Cl)ccc32)CO4)C1 the Ki was under 0.3 µM.
For CO[C@H]1/C=C/CN2CCC[C@H]2C(=O)NS(=O)(=O)c2ccc3c(c2)N(C[C@@H]2CC[C@H]21)C[C@@]1(CCCc2cc(Cl)ccc21)CO3 [US11130769, Ex. No. 100], the Ki was under 0.1 µM.
With CO[C@@H]1/C=C/CN(C)C(=O)NS(=O)(=O)c2ccc3c(c2)N(C[C@@H]2CC[C@H]21)C[C@@]1(CCCc2cc(Cl)ccc21)CO3 [US11130769, Ex. No. 108] the Ki was under 0.1 µM.
For CN(C)C(=O)O[C@@H]1/C=C/CN(C)C2(CCC2)C(=O)NS(=O)(=O)c2ccc3c(c2)N(C[C@@H]2CC[C@H]21)C[C@@]1(CCCc2cc(Cl)ccc21)CO3 [US11130769, Ex. No. 139], the Ki was under 0.1 µM.
Molecule CN(C)C[C@H]1CCCN1C(=O)O[C@H]1/C=C/COC(C)(C)C(=O)NS(=O)(=O)c2ccc3c(c2)N(C[C@@H]2CC[C@H]21)C[C@@]1(CCCc2cc(Cl)ccc21)CO3 [US11130769, Ex. No. 169] has a Ki of under 0.3 µM.
CCOC(=O)N(C)[C@@H]1/C=C/COC(C)(C)C(=O)NS(=O)(=O)c2ccc3c(c2)N(C[C@@H]2CC[C@H]21)C[C@@]1(CCCc2cc(Cl)ccc21)CO3 [US11130769, Ex. No. 252] was tested, and the Ki was under 0.1 µM.

Reference: BindingDB's records for patent US11130769 (Prelude Therapeutics, 2021)
